Results reported in patent US20230183239A1, “ECTONUCLEOTIDE PYROPHOSPHATASE-PHOSPHODIESTERASE 1 (ENPP-1) INHIBITORS AND USES THEREOF” (AbbVie Inc., priority 2017, published 2023).

Key:
Type in all cases: biochemical
ENPP1 [1] = target: T1, ENPP1 (Homo sapiens, UniProt P22413); test: Substrate selectivity ratio, inhibition of cGAMP hydrolysis versus ATP hydrolysis; conditions: ratio Ki AMP-pNP / Ki cGAMP
T1 sequence (P22413 1-925): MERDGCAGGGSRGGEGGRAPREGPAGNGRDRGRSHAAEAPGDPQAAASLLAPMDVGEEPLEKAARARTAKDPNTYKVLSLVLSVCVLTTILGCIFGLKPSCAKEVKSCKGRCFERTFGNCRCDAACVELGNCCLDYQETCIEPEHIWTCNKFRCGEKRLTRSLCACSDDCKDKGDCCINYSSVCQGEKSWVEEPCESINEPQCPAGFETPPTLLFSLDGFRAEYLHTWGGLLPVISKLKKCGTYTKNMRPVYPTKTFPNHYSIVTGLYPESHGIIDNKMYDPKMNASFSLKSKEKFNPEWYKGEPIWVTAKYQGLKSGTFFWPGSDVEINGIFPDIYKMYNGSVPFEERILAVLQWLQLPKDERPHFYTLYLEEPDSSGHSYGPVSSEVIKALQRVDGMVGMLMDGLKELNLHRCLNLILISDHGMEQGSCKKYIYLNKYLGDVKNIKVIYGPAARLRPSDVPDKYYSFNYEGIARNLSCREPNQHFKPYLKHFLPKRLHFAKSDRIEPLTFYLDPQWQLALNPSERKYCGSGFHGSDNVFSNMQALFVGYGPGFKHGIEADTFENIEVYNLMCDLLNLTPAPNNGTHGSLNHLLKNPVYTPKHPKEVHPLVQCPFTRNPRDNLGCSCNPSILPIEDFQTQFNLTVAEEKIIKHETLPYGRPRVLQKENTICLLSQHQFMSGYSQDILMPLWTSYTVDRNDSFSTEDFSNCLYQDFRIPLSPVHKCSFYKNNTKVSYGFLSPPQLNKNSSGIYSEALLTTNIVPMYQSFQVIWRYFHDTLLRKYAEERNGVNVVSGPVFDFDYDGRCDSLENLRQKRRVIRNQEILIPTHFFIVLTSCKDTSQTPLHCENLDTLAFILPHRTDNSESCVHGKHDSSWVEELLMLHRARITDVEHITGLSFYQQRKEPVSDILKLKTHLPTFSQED
Procedure: The selectivity ratios for inhibition of cGAMP hydrolysis versus ATP hydrolysis were then calculated as follows: […]

ENPP1 [2] = target: T1, ENPP1; test: ENPP1 enzyme assay with AMP-pNP substrate (hydrolysis of ATP analog); conditions: AMP-pNP substrate (ATP analog); Ki from IC50 by Cheng-Prusoff; read-out: ENPP1 Inhibition _AMP-pNP: Ki
In short: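 Human recombinant ENPP1 (60 ng/well) with 300 µM AMP-pNP in 50 mM Tris-HCl pH 8.5, 250 mM NaCl, 0.5 mM CaCl2, 1 µM ZnCl2, 0.1% DMSO, 20 min at 37 °C.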

ENPP1 [3] = target: T1, ENPP1; test: Indirect quantitation of 2',3'-cGAMP hydrolysis (AMP-Glo Assay kit); conditions: cGAMP substrate; Ki from IC50 by Cheng-Prusoff; read-out: ENPP1 Inhibition -cGAMP: Ki

Structure (SMILES) | Substrate Selectivity: Ki_AMP-pNP/Ki_cGAMP (ENPP1 [1]) | Ki (ENPP1 [2]) [µM] | Ki (ENPP1 [3]) [µM]
COc1ccc2c(Oc3ccc(NS(N)(=O)=O)cc3)ncnc2n1 [Example 227, N-(4-((7-methoxypyrido[2,3-d]pyrimidin-4-yl)oxy)phenyl)sulfamide] | 51.9 | 0.1 to 1 | < 0.1
COc1cc2ncc(F)c(-c3ccc4c(c3)CN(S(N)(=O)=O)CC4)c2cc1OC [Example 229, 7-(3-fluoro-6,7-dimethoxyquinolin-4-yl)-3,4-dihydroisoquinoline-2(1H)-sulfonamide] | 27.2 | < 0.1 | < 0.1
COc1ccc2c(NCc3ccc(S(N)(=O)=O)cc3)ncnc2c1 [Example 230, 4-(((7-methoxyquinazolin-4-yl)amino)methyl)benzene sulfonamide] | 71.2 | < 0.1 | < 0.1
COc1ccc2c(Nc3ccc(NS(N)(=O)=O)cc3)ccnc2n1 [Example 231, N-(4-((7-methoxy-1,8-naphthyridin-4-yl)amino)phenyl)sulfamide] | 30.9 | < 0.1 | < 0.1
NS(=O)(=O)NCCC1CCN(c2ncnc3c2CCNC3)CC1 [Example 232, N-(2-(1-(5,6,7,8-tetrahydropyrido[3,4-d]pyrimidin-4-yl)piperidin-4-yl)ethyl)sulfamide] | > 7.1 | > 1 | 0.1 to 1
COc1cc2c(-c3ccc(CNS(N)(=O)=O)cc3)c(C#N)cnc2cn1 [Example 235, N-(4-(3-cyano-6-methoxy-1,7-naphthyridin-4-yl)benzyl)sulfamide] | >97.7 | > 1 | 0.1 to 1
COc1cc2ncnc(NC(C)c3ccc(NS(N)(=O)=O)cc3)c2cc1F (stereo not drawn) [Example 236, N-(4-(1-((6-fluoro-7-methoxyquinazolin-4-yl)amino)ethyl)phenyl)sulfamide] | 109 | 0.1 to 1 | < 0.1
COc1ccc2ncc(C#N)c(-c3ccc4c(c3)CN(S(N)(=O)=O)CC4)c2c1 [Example 237, 7-(3-cyano-6-methoxyquinolin-4-yl)-3,4-dihydroisoquinoline-2(1H)-sulfonamide] | >371 | > 1 | < 0.1
COc1ccc2ncc(C#N)c(N3CCC4(CC3)CCN(S(N)(=O)=O)C4)c2c1 [Example 238, 8-(3-cyano-6-methoxyquinolin-4-yl)-2,8-diazaspiro[4.5]decane-2-sulfonamide] | >99.7 | 0.1 to 1 | < 0.1
COc1cc2nccc(-c3ccc(CNS(N)(=O)=O)cc3)c2cc1F [Example 239, N-(4-(6-fluoro-7-methoxyquinolin-4-yl)benzyl)sulfamide] | 62 | 0.1 to 1 | < 0.1
COc1ccc2ncc(C#N)c(-c3ccc(CNS(N)(=O)=O)cc3)c2c1 [Example 240, N-(4-(3-cyano-6-methoxyquinolin-4-yl)benzyl)sulfamide] | >81.3 | > 1 | < 0.1
COc1cc2ncc(C#N)c(-c3ccc(CNS(N)(=O)=O)cc3)c2cc1OC [Example 241, N-(4-(3-cyano-6,7-dimethoxyquinolin-4-yl)benzyl)sulfamide] | 49.0 | 0.1 to 1 | < 0.1
NS(=O)(=O)Nc1ccc(Nc2ncnc3ncccc23)cc1 [Example 242, N-(4-(pyrido[2,3-d]pyrimidin-4-ylamino)phenyl)sulfamide] | >82.4 | > 1 | 0.1 to 1
COc1ccc2c(-c3ccc(CNS(N)(=O)=O)cc3)c(C#N)cnc2c1 [Example 244, N-(4-(3-cyano-7-methoxyquinolin-4-yl)benzyl)sulfamide] | 53.0 | 0.1 to 1 | < 0.1
COc1cc2ncc(C#N)c(N3CCC(CCNS(N)(=O)=O)CC3)c2cn1 [Example 245, N-(2-(1-(3-cyano-7-methoxy-1,6-naphthyridin-4-yl)piperidin-4-yl)ethyl)sulfamide] | >92.6 | > 1 | 0.1 to 1
COc1cc2ncnc(NC(c3ccc(NS(N)(=O)=O)cc3)C3CC3)c2cc1OC (stereo not drawn) [Example 246, N-(4-(cyclopropyl((6,7-dimethoxyquinazolin-4-yl)amino)methyl)phenyl)sulfamide] | >87.7 | > 1 | < 0.1
COc1cc2c(NCc3ccc(S(N)(=O)=O)cc3)ncnc2cn1 [Example 247, 4-(((6-methoxypyrido[3,4-d]pyrimidin-4-yl)amino)methyl)benzenesulfonamide] | 67.3 | > 1 | 0.1 to 1
COc1ccc2c(N3CCC4(CC3)CCN(S(N)(=O)=O)C4)c(C#N)cnc2c1 [Example 248, 8-(3-cyano-7-methoxyquinolin-4-yl)-2,8-diazaspiro[4.5]decane-2-sulfonamide] | 48.6 | < 0.1 | < 0.1
NS(=O)(=O)N1CCC2(CCN(c3ncnc4cc(F)ccc34)CC2)C1 [Example 250, 8-(7-fluoroquinazolin-4-yl)-2,8-diazaspiro [4.5] decane-2-sulfonamide] | > 89.3 | > 1 | < 0.1
COc1cc2c(N3CCC4(CC3)CCN(S(N)(=O)=O)C4)c(C#N)cnc2cn1 [Example 256, 8-(3-cyano-6-methoxy-1,7-naphthyridin-4-yl)-2,8-diazaspiro [4.5] decane-2-sulfonamide] | >118 | > 1 | < 0.1
COc1cc2nccc(Oc3cc(F)c(NS(N)(=O)=O)cc3F)c2cc1OC [Example 258, N-(4-((6,7-dimethoxyquinolin-4-yl)oxy)-2,5-difluorophenyl)sulfamide] | >48.1 | > 1 | < 0.1
COc1cc2ncnc(NCc3ccc(S(N)(=O)=O)cc3)c2cc1F [Example 259, 4-(((6-fluoro-7-methoxyquinazolin-4-yl)amino)methyl)benzenesulfonamide] | 41.6 | < 0.1 | < 0.1
COc1cc2ncc(-c3ccc4c(c3)CN(S(N)(=O)=O)CC4)c(Cl)c2cc1OC [Example 260, 7-(4-chloro-6,7-dimethoxyquinolin-3-yl)-3,4-dihydroisoquinoline-2(1H)-sulfonamide] | 21.5 | < 0.1 | < 0.1
COc1cc2nccc(Oc3ccc(NS(=O)(=O)C4CCC4)cc3)c2cc1OC [Example 261, N-(4-((6,7-dimethoxyquinolin-4-yl)oxy)phenyl)cyclobutanesulfonamide] | >12.9 | > 1 | 0.1 to 1
N#Cc1cnc2cc(OC(F)F)ccc2c1-c1ccc2c(c1)CN(S(N)(=O)=O)CC2 [Example 262, 7-(3-cyano-7-(difluoromethoxy)quinolin-4-yl)-3,4-dihydroisoquinoline-2(1H)-sulfonamide] | >173 | > 1 | 0.1 to 1
